Test results taken from patent publication US20250152750A1 (Cancer Research Technology Limited, priority 2022, published 2025).
Entries after “also recorded” stand apart in the source; their conditions may differ.

Tests used:
[1] = system: uptake of cyanine dye nanoparticles in control and senescent cells; experiment: Endocytosis analysis by confocal microscopy with endocytosis pathway inhibitors; type: cell-based; settings: inhibitor 1 h before nanoparticles, 12-16 h
Experimental: Cells were trypsinized and seeded in flat-bottom μ-clear 96-well plates (Greiner Bio-One, #655087) at a density of 3,500-5,000 control and 4,000-6,000 senescent cells/well. Once the cells were attached, culture medium was changed to DMEM without FBS and exposed to a number of different inhibitors for 1 h. […] The cells were washed 3x with PBS for 5 min. Specific organelle stain LysoTracker Green DND-26 (Cell Signaling Technology, FM8783) was used according to the manufacturers protocol. For nuclei staining, Hoechst at 0.1 μg/mL in PBS was added 10 min prior to analysis.

SK-MEL-103 xenografts = experiment: Ex vivo IVIS fluorescence imaging of untreated and Palbociclib treated xenografts; type: in vivo, mice; settings: 200 μL of 1 mg/mL tail vein, 6 h, p=0.0438
Experimental: All mice were treated in strict accordance with the local ethical committee (University of Cambridge License Review Committee) and the UK Home Office guidelines. Tumour xenografts were established using SK-MEL-103. Cells were trypsinised, counted with a haemocytometer, and injected subcutaneously (10^6 cells in a volume of 100 μL per dorsolateral flank) in 8- to 10-week-old athymic nude female mice (Crl:NU(NCr)-Foxn1^nu) purchased from Charles River Laboratories. Tumour volume was measured every 2 days with a caliper and calculated as V=(a×b 2)/2 where a is the longer and b is the shorter of two perpendicular diameters. […]
An IVIS Spectrum Imaging System (Perkin Elmer Inc) was used for ex vivo fluorescence imaging. For ex vivo imaging, mice were sacrificed by cervical dislocation and organs and tumour xenografts were analysed immediately after harvesting. ICG was detected using an excitation wavelength of 710-740 nm and emission bandpass from 810-830 nm. […] Fluorescence imaging quantification was performed by Living Image 3.2 software (Perkin Elmer Inc). […] Fluorescence activity is measured in photons per second per square centimetre per steradian (p/s/cm^2/sr). […]
See Examples—part A. Fluorescence activity is measured as average Radiant Efficiency with the equation of [p/s/cm2/sr]/[μW/cm2].

[2] = system: senescent cells (multiple models of senescence); experiment: Flow cytometry accumulation in control and senescent cells; type: cell-based, human; settings: 12-16 hours exposure
Experimental: LSR Fortessa (BD-Becton Dickinson) was used for flow cytometry analysis. For cyanine dye nanoparticle and small molecule studies, 6 well plates were used and seeded 200,000 cells per well. […] After this, cells were trypsinised and re-suspended in PBS buffer with 2% FBS. At least 10,000 live events were collected for each condition. DAPI (Sigma) was added to exclude dead cells. The analysis of all flow cytometry data was performed using FlowJo v10 (Treestar, OR). Unstained control and senescent cells were used as reference for each independent experiment. For ICG the 640 nm laser was used with an emission window of 750-810 nm. For the cyanine dye nanoparticle, the 640 nm laser was used with an emission window of 708-753 nm.

| Compound | effect of inhibitor on uptake of cyanine dye nanoparticles [1] | further results |
| --- | --- | --- |
| O=C1NC(=NS(=O)(=O)c2cccc3ccccc23)S/C1=C\c1ccc(Br)cc1 [Pitstop 2] | significant inhibition; also recorded: significant inhibitor of endocytosis |  |
| O=C(N/N=C/c1cc(O)c(O)cc1O)c1cc2ccccc2cc1O [dynago4a] | significantly inhibited | effect of inhibitor on uptake of cyanine dye nanoparticles ([1]; listed as dyngo4a): significant inhibition |
| CC1(C)C(/C=C/C=C/C=C/C=C2\N(CCCCS(=O)(=O)O)c3ccc4ccccc4c3C2(C)C)=[N+](CCCCS(=O)(=O)[O-])c2ccc3ccccc3c21 [ICG, indocyanine green] |  | ICG emission in untreated (control) vs Palbociclib treated tumours (SK-MEL-103 xenografts): accumulation in untreated tumours as opposed to senescent tumours; also recorded: significantly higher signal in the control tumours; accumulation in senescent cells compared to controls [2]: accumulation of ICG |
| CN1CCN(CCCN2c3ccccc3Sc3ccc(Cl)cc32)CC1 [prochloroperazine] | not inhibited |  |
| CCN(CC)CCCC(C)Nc1ccnc2cc(Cl)ccc12 (centres unmarked) [chloroquine] | significantly enhances | effect of inhibitor on uptake of cyanine dye nanoparticles ([1]; listed as Chloroquine): more dramatic increase |
